Results taken from US20230413822A1, “ORAL CANINE FEED AND METHODS FOR C[…] INFESTATIONS IN A CANINE” (In the Bowl Animal Health, Inc., priority 2021, published 2023).
“And” between values parts separate entries of the source, which are not always exact repeats. Equal values may be shown once.

What was measured:
[1] = Plasma concentration of mivorilaner in dogs given an oral liquid formulation daily (Example 1); type: in vivo; conditions: for Mivorilaner Concentration, Average: average of 6 canines, days 0-29; for Mivorilaner Concentration: individual canines, days 0-29, 0.75 mg/kg/day
Description: Methods: A pool of 14 dogs are to be preliminarily infested with ˜100 unfed adult C. felis in order to produce dogs that can suitably sustain a reliable infestation rate, defined as approximately 50% fleas being live at the end of a 48-hour period. The 12 dogs with the highest live flea counts are to be selected for inclusion in the study. The dogs are to be divided into a control group and a treatment group.
The dogs are to be housed individually during the study period and are to be fed a commercial dry dog food ration with ad libitum access to water.
Each dog in the treatment group is to receive by mouth a liquid formulation of isoxazoline. The dosage of 0.75 mg/kg is to be administered to the dogs on each of days 0-29.
Dogs in the control group are not to receive isoxazoline or any other tick control treatment. Each dog in the treatment group is to be offered its daily ration (dry food) and the individual doses of liquid formulation are to be administered after the individual dog has eaten at least 25% of its total daily ration. After receiving the dose of isoxazoline, the dogs are to be allowed to continue eating. This mimics incorporating the isoxazoline in feed. Each dog in the treatment group and the control group is to be experimentally infested with 50 adult ticks on test days 5, 12, 19, 28 and 35. Comb counts for live and moribund attached ticks are to be conducted on days 7, 14, 21, 30 and 37.

[2] = Plasma concentration of mivorilaner in dogs fed medicated daily feed (Example 6); type: in vivo; set-up: unit not given here
Description: Methods: A pool of dogs are to be preliminarily infested with ˜50 unfed adult R. sanguineus ticks in order to produce dogs that can suitably sustain a reliable infestation rate, defined as approximately 25% of attached ticks being live at the end of a 72-hour period. The 24 dogs with the highest live attached tick counts are to be selected for inclusion in the study. The 18 dogs with the highest live attached tick counts are to be randomly assigned to one of a control group and 2 treatment groups. The 6 dogs with the next highest live attached tick counts are to be assigned to a third treatment group.
The dogs are to be housed individually during the study period and are to have ad libitum access to water.
Each dog in a treatment group (test groups 2-4) is to receive a medicated daily feed from study days 0-49. The medicated daily feed is to be offered to the dogs for 1 hour on each of days 0-49 according to test groups listed in TABLE 7.
Sample results of the average plasma concentration of isoxazoline in a canine's blood at different dosage levels are shown in TABLE 8 and FIG. 9 for mivorilaner.

O=C(CNC(=O)c1sc(C2=NO[C@@](c3cc(Cl)c(F)c(Cl)c3)(C(F)(F)F)C2)c2c1CCC2)NCC(F)F [Mivorilaner, 3-[(5S)-5-(3,5-dichloro-4-fluorophenyl)-5-(trifluoromethyl)-4,5-dihydroisoxazol-3-yl]-N-[2-[(2,2-difluoroethyl)amino]-2-oxoethyl]-5,6-dihydro-4H-cyclopenta[c]thiophene-1-carboxamide]
Mivorilaner Concentration, Average ([1]; Day 3, 0.75 mg/kg/day oral): 674 ng/mL
Mivorilaner Concentration, Average ([1]; Day 7, 0.75 mg/kg/day oral): 1449 ng/mL
Mivorilaner Concentration, Average ([1]; Day 14, 0.75 mg/kg/day oral): 2105 ng/mL
Mivorilaner Concentration, Average ([1]; Day 21, 0.75 mg/kg/day oral): 2725 ng/mL
Mivorilaner Concentration, Average ([1]; Day 30, 0.75 mg/kg/day oral): 2628 ng/mL
Mivorilaner Concentration, Average ([1]; Day 37, 0.75 mg/kg/day oral): 2017 ng/mL
Mivorilaner Concentration ([1]; Day 3, 0.75 mg/kg/day oral): 556 ng/mL and 648 ng/mL and 579 ng/mL and 660 ng/mL
Mivorilaner Concentration ([1]; Day 7, 0.75 mg/kg/day oral): 1330 ng/mL and 1620 ng/mL and 994 ng/mL and 1470 ng/mL
Mivorilaner Concentration ([1]; Day 14, 0.75 mg/kg/day oral): 1990 ng/mL and 2530 ng/mL and 1560 ng/mL and 2120 ng/mL
Mivorilaner Concentration ([1]; Day 21, 0.75 mg/kg/day oral): 2750 ng/mL and 2820 ng/mL and 2450 ng/mL and 2720 ng/mL
Mivorilaner Concentration ([1]; Day 30, 0.75 mg/kg/day oral): 2570 ng/mL and 2890 ng/mL and 2320 ng/mL and 2600 ng/mL
Mivorilaner Concentration ([1]; Day 37, 0.75 mg/kg/day oral): 2070 ng/mL and 2410 ng/mL and 1880 ng/mL and 2010 ng/mL
average plasma concentration of isoxazoline in a canine's blood ([2]; Group 2-106 mg/kg feed (anticipated 1 mg/kg daily), Time 1 hr): 49.98
average plasma concentration of isoxazoline in a canine's blood ([2]; Group 2-106 mg/kg feed (anticipated 1 mg/kg daily), Time 3 hr): 292.00
average plasma concentration of isoxazoline in a canine's blood ([2]; Group 2-106 mg/kg feed (anticipated 1 mg/kg daily), Time 6 hr): 539.00
average plasma concentration of isoxazoline in a canine's blood ([2]; Group 2-106 mg/kg feed (anticipated 1 mg/kg daily), Time 10 hr): 505.40
average plasma concentration of isoxazoline in a canine's blood ([2]; Group 2-106 mg/kg feed (anticipated 1 mg/kg daily), Time 24 hr): 458.60
average plasma concentration of isoxazoline in a canine's blood ([2]; Group 2-106 mg/kg feed (anticipated 1 mg/kg daily), Time 48 hr): 771.83
average plasma concentration of isoxazoline in a canine's blood ([2]; Group 2-106 mg/kg feed (anticipated 1 mg/kg daily), Time 96 hr): 1570.50
average plasma concentration of isoxazoline in a canine's blood ([2]; Group 2-106 mg/kg feed (anticipated 1 mg/kg daily), Time 168 hr): 2156.67
average plasma concentration of isoxazoline in a canine's blood ([2]; Group 2-106 mg/kg feed (anticipated 1 mg/kg daily), Time 240 hr): 3003.33
average plasma concentration of isoxazoline in a canine's blood ([2]; Group 2-106 mg/kg feed (anticipated 1 mg/kg daily), Time 336 hr): 3290.00
average plasma concentration of isoxazoline in a canine's blood ([2]; Group 3-106 mg/kg feed (anticipated 1 mg/kg daily), Time 1 hr): 40.41
average plasma concentration of isoxazoline in a canine's blood ([2]; Group 3-106 mg/kg feed (anticipated 1 mg/kg daily), Time 3 hr): 264.83
average plasma concentration of isoxazoline in a canine's blood ([2]; Group 3-106 mg/kg feed (anticipated 1 mg/kg daily), Time 6 hr): 467.50
average plasma concentration of isoxazoline in a canine's blood ([2]; Group 3-106 mg/kg feed (anticipated 1 mg/kg daily), Time 10 hr): 419.17
average plasma concentration of isoxazoline in a canine's blood ([2]; Group 3-106 mg/kg feed (anticipated 1 mg/kg daily), Time 24 hr): 435.17
average plasma concentration of isoxazoline in a canine's blood ([2]; Group 3-106 mg/kg feed (anticipated 1 mg/kg daily), Time 48 hr): 781.83
average plasma concentration of isoxazoline in a canine's blood ([2]; Group 3-106 mg/kg feed (anticipated 1 mg/kg daily), Time 96 hr): 1596.67
average plasma concentration of isoxazoline in a canine's blood ([2]; Group 3-106 mg/kg feed (anticipated 1 mg/kg daily), Time 168 hr): 2406.67
average plasma concentration of isoxazoline in a canine's blood ([2]; Group 3-106 mg/kg feed (anticipated 1 mg/kg daily), Time 240 hr): 3026.67
average plasma concentration of isoxazoline in a canine's blood ([2]; Group 3-106 mg/kg feed (anticipated 1 mg/kg daily), Time 336 hr): 3516.67
average plasma concentration of isoxazoline in a canine's blood ([2]; Group 4-318 mg/kg feed (anticipated 3 mg/kg daily), Time 1 hr): 143.75
average plasma concentration of isoxazoline in a canine's blood ([2]; Group 4-318 mg/kg feed (anticipated 3 mg/kg daily), Time 3 hr): 846.50
average plasma concentration of isoxazoline in a canine's blood ([2]; Group 4-318 mg/kg feed (anticipated 3 mg/kg daily), Time 6 hr): 1265.67
average plasma concentration of isoxazoline in a canine's blood ([2]; Group 4-318 mg/kg feed (anticipated 3 mg/kg daily), Time 10 hr): 1198.17
average plasma concentration of isoxazoline in a canine's blood ([2]; Group 4-318 mg/kg feed (anticipated 3 mg/kg daily), Time 24 hr): 1021.17
average plasma concentration of isoxazoline in a canine's blood ([2]; Group 4-318 mg/kg feed (anticipated 3 mg/kg daily), Time 48 hr): 2011.67
average plasma concentration of isoxazoline in a canine's blood ([2]; Group 4-318 mg/kg feed (anticipated 3 mg/kg daily), Time 96 hr): 3928.33
average plasma concentration of isoxazoline in a canine's blood ([2]; Group 4-318 mg/kg feed (anticipated 3 mg/kg daily), Time 168 hr): 6461.67
average plasma concentration of isoxazoline in a canine's blood ([2]; Group 4-318 mg/kg feed (anticipated 3 mg/kg daily), Time 240 hr): 8696.67
